Measured values reported in patent US12459951B2, “Compounds that interact with RAS superfamily proteins for treatment of cancers, inflammatory diseases, rasopathies, and fibrotic disease” (SHY Therapeutics, LLC, priority 2022, dated 2025).
Read-outs that look alike come from different tables or passages of the source.

Tests used:
MAPK p38 phosphorylation = assay: MAPK p38 Activation Assay (western blot), Panc-1; assay type: cell-based, human; details: at 10 μM, Panc-1 pancreatic cancer cell line; starred symbols = activation
Outline: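 Panc-1 cells (KRas G12D) were treated with compound for 6 h at 37 °C, at 10 μM or as serial dilutions for IC50, with 0.3% DMSO. Method 1 used overnight serum-starved cells (0.5% FBS) stimulated with 1.5 ng/ml EGF for 15 min; Method 2 used unstimulated cells in 10% FBS. Phospho-p38 (Thr180/Tyr182) was detected by western blot.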

IL6 = assay: IL-6 Quantification Assay (ELISA), LPS-stimulated RAW 264.7; assay type: cell-based; set-up: inhibition: dose or concentration left out as unconfirmed; details: Mus musculus, RAW264.7; read-out: IL-6: % inh.
TNF-alpha = TNF-alpha Quantification Assay (ELISA), LPS-stimulated RAW 264.7; assay type: cell-based; details: Mus musculus, RAW264.7; at 10 μM; read-out: TNFα: % inh.
[1] = tested on: MiaPaca-2 (expressing KRAS G12C mutant); assay: Proliferation Assay (Cell Viability Assay); assay type: cell-based; details: Homo sapiens, MIA PaCa-2
Outline: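 MiaPaca-2 cells (KRAS G12C) were grown in DMEM-high glucose with 10% FBS, seeded at 2000–5000 cells/well and cultured overnight. Compounds were added at 10 μM final, or as serial dilutions for IC50, in 0.3% DMSO/10% FBS for 2–4 days at 37 °C, 5% CO2. Viability was measured with CellTiter 96 Aqueous One and % inhibition calculated.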

[2] = read-out: Proliferation in MiaPaca-2: IC50

Compound | IC50 [1, 2] [nM] | IC50 ([1]; Proliferation assay, MiaPaca-2, read-out: MiaPaca-2 IC50 (nM) Pancreatic) [nM] | % inh of MAPK p38 in Panc-1 (MAPK p38 phosphorylation) | inhibition (IL6) [%] | inhibition at 10 µM (TNF-alpha) [%]
COc1ccnc(Nc2nc(-c3nccn3C)nn3cc(-c4ccn(CCNC(=O)CCCC[C@H]5SC[C@H]6NC(=O)N[C@H]65)n4)c(C)c23)c1 [Compound 215, N-(2-(3-(4-((4-methoxypyridin-2-yl)amino)-5-methyl-2-(1-methyl-1H-imidazol-2-yl)pyrrolo[2,1-f][1,2,4]triazin-6-yl)-1H-pyrazol-1-yl)ethyl)-5-((3aR,4R,6aS)-2-oxohexahydro-1H-thieno[3,4-d]imidazol-4-yl)pentanamide] | > 1000 |  | F (F = 31-74% inhibition) | 1 to 24 | 25 to 49
COc1ccnc(Nc2nc(-c3nccn3C)nn3cc(-c4c(F)cccc4OC)c(-c4ccccc4)c23)c1 [Compound 217, 6-(2-Fluoro-6-methoxyphenyl)-N-(4-methoxypyridin-2-yl)-2-(1-methyl-1H-imidazol-2-yl)-5-phenylpyrrolo[2,1-f][1,2,4]triazin-4-amine] | < 150 |  | F (F = 31-74% inhibition) | 75 to 100 | 25 to 49

More lines, main results first:

IC50 [1, 2] [nM] | IC50 ([1]; Proliferation assay, MiaPaca-2, read-out: MiaPaca-2 IC50 (nM) Pancreatic) [nM] | Compound | % inh of MAPK p38 in Panc-1 (MAPK p38 phosphorylation) | inhibition (IL6) [%] | inhibition at 10 µM (TNF-alpha) [%]
> 1000 |  | CO[C@H]1C[C@H](Nc2nc(-c3nccn3C)nn3cc(-c4cnccc4C)c(-c4ccccc4)c23)C1 [Compound 218, N-((1r,3r)-3-Methoxycyclobutyl)-2-(1-methyl-1H-imidazol-2-yl)-6-(4-methylpyridin-3-yl)-5-phenylpyrrolo[2,1-f][1,2,4]triazin-4-amine] | F* (F* = 31-74% activation) | 1 to 24 | 1 to 24
> 1000 |  | COc1ccnc(Oc2nc(-c3nccn3C)nn3cc(-c4ccn(C)n4)c(C)c23)c1 [Compound 220, 4-((4-Methoxypyridin-2-yl)oxy)-5-methyl-2-(1-methyl-1H-imidazol-2-yl)-6-(1-methyl-1H-pyrazol-3-yl)pyrrolo[2,1-f][1,2,4]triazine] | F (F = 31-74% inhibition) | 25 to 49 | 1 to 24
< 150 | 1 to 10 | Cc1c(-c2ccn(C)n2)cn2nc(-c3nccn3C)nc(Nc3cc4c(cn3)CCO4)c12 [Compound 221, N-(5-Methyl-2-(1-methyl-1H-imidazol-2-yl)-6-(1-methyl-1H-pyrazol-3-yl)pyrrolo[2,1-f][1,2,4]triazin-4-yl)-2,3-dihydrofuro[3,2-c]pyridin-6-amine] | E (E = 1-30% inhibition) | 25 to 49 | 0
